Results on one compound are retold here after publication PMC6394990, “Detailed characterization of the solution kinetics and thermodynamics of biotin, biocytin and HABA binding to avidin and streptavidin” (PLoS ONE, 2019).

Like-named read-outs stand apart in the source and are kept apart here.

Assay [1] has as its target T1, avidin (AV) (Gallus gallus, UniProt P02701).
T1 construct: purchased Calbiochem (La Jolla, CA)
The assay can be described thus: Relaxation kinetics of unlabeled biotin reacting with the AV-HABA complex. The format is binding. The note with it: pH 8. As for the experimental part: (§1) All of the following protein concentrations are presented on a binding site basis, thus in the case of the HABA association reactions for AV were measured at 23.0 ± 0.1°C with a concentration of 87 μM HABA and 7.7 μM AV. The AV-HABA relaxation reactions were conducted with a preformed AV-HABA complex made up of 200 μM HABA and 10 μM AV, flowed against varying amounts of B7 from 100 μM up to 4000 μM for a [HABA]/[B7] ratio that ranged from 0.05 to 2.
The relaxation experiments were prepared at concentrations in which HABA occupies all sites (AV-HABA4). Biotin replaces HABA relative to the koff of the dye as shown for the first step (Eq 1) and then repeated for all sites. Having greater affinity, B7 occupies all sites at the end of the reaction and the measured kon is related to the affinities of the ligand bound protein.
The reaction is monitored by the HABA absorbance changes at 500 nm as it is replaced by unlabeled B7; yielding the relaxation constant of the reaction (Relaxation, Eq 2) which contains information of the B7 association rate constant of the open binding site, k1AV−HABA3 to form a full saturated complex (AV-HABA4) and the dissociation rate of that full complex, k−1AV−HABA4 , to yield a complex with three HABA molecules (AV-HABA3). In the subsequent steps, B7 replaces HABA as the ligand but the release of HABA creates an unoccupied site that remains in the same state. In summary, the experiment was designed to acquire the pseudo-first order association rate constant of B7 binding ( konB ) to the solely free binding site in a complex occupied by three HABA molecules (AV-HABA3).
The reciprocal of the relaxation constant (1/Relaxation) is plotted vs. the [HABA]/[B] concentration ratio (Eq 3) allowing to calculate: k−1AV−HABA4 and k1AV−HABA3 by solving for the intercept ( 1/k−1AV−HABA4 ) and the respective slope: m=k1AV−HABA3/(k−1AV−HABA4∙konB) . The exponential decays were analyzed by the method of Foss. There was no departure from simple first order decay in the relaxation, justifying the use of the following model and equations.

In assay [2] the target is T1, avidin (AV). The experiment in a line: HABA association reaction for AV (stopped-flow absorbance at 500 nm). The assay is classed as binding. To be noted: 23°C. The procedure:
as §1
These calculations have been described elsewhere and were acquired for the AB1 complexes. The HABA association reaction for AV was carried out under pseudo-first order conditions on a micro absorbance SF instrument equipped with a xenon arc lamp (described above) and a monochromator (model 82–410, Jarrel-Ash, Waltham, Mass.) set at 500 nm.

Assay [3] concerns the target T1, avidin (AV). The note with it: pH 8; read-out: KD AV-HABA; cited from earlier work.

T1 sequence (P02701 25-152): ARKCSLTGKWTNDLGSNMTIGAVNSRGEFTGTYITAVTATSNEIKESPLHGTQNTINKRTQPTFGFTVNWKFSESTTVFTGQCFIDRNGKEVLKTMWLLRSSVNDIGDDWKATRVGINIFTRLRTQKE

For `O=C(O)c1ccccc1N=Nc1ccc(O)cc1` [HABA, 2-(4’-hydroxyazobenzene)-benzoic acid], the equilibrium dissociation constant (Kd) on avidin (AV) [1] (from k−1 and k1) was 12.2 µM; on avidin (AV) [3], 12 µM. Also, the “k−1 AV−HABA4, HABA dissociation rate constant of the AV-HABA4 complex” value at avidin (AV) [1] (23°C) was 6.23 ± 0.11 s⁻¹. The “k1 AV−HABA3, HABA association rate for the final site” value on avidin (AV) [2] is recorded as 5.1 ± 0.1 × 10^5 M^-1s^-1.
